Source: paper PMC4621027, “Hydroxyethylamine Based Phthalimides as New Class of Plasmepsin Hits: Design, Synthesis and Antimalarial Evaluation” (PLoS ONE, 2015)
Where two headings read alike, the source gives them in different places.

Legend:
P. falciparum 3D7 = assay: SYBR green I-based fluorescence parasite growth assay, CQ sensitive strain; format: cell-based, Plasmodium falciparum; details: read-out: IC50 values ± SE, growth of P. falciparum (3D7)
Procedure: (§1) For compound screening, SYBR green I-based fluorescence assay was setup as described in literature. Sorbitol synchronized parasites were incubated under normal culture conditions at 2% hematocrit and 1% parasitemia in the absence or presence of increasing concentrations of the compounds. Chloroquine (CQ) was used as positive control, while 0.4% DMSO was used as the negative control.
(§2) We have studied the antimalarial effect of all the listed molecules in […] culture conditions in order to identify a putative lead structure for pharmacological applications.

[1] = tested on: CQ resistant strain (7GB) of P. falciparum; assay: Antiplasmodial activity against CQ resistant strain; format: cell-based; details: Plasmodium falciparum
Procedure: as §1, §2

human erythrocytes = assay: In vitro hemolytic activity; format: cell-based; details: 3.125 to 100 μg/mL, 37°C, 1 h
Procedure: In vitro hemolytic activity of all synthesized compounds was performed as per reported protocol with slight modifications. In brief, human erythrocytes were collected from Rotary Blood Bank (New Delhi, India) and suspended in phosphate buffer saline (PBS). The suspension (2% hemotocrit) was incubated with different concentrations (3.125 to 100 μg/mL) of the entire compound series at 37°C for 1 h. After 1 h, erythrocytes were pelleted at 3000 g for 10 min (Remi, R-8C/BL) at 4°C. The supernatant was collected and OD450 was determined spectrophotometrically (Biotek, ELx800 UV spectrophotometer) using PBS as a negative control and Triton X-100 for completely lysing the cells. The percent hemolysis was calculated using the following formula: Percent hemolysis = […]. The percent hemolysis was plotted against concentration of compounds for determining the dose cytotoxic to erythrocytes.

[2] = MTT-colorimetric cytotoxicity assay; format: cell-based; details: human, MCF-7 cells, read-out: IC50, cytotoxicity on MCF7 cell line
Procedure: (§3) Phthalimides were serially diluted in DMSO in a final concentration of 100, 25 and 6.25 μg mL^-1 and evaluated for their % cytotoxicity by using MTT-colorimetric assay on MCF-7 cell line. Cell lines were maintained in RPMI-1640 (Hi-Media, Mumbai) medium supplemented with heat inactivated FCS (10% v/v) and 100 U/mL of streptomycin and were cultured in a humidified 5% CO2 atmosphere at 37°C. 100 μL (~2×10^5) of cells were seeded into wells (per well) on a 96-well plate (Nunc, Maxi Sorp) and incubated for 16 h for adherence. After 16 h, media was aspirated from the wells and the cells were washed with RPMI-1640 without FCS. 75 μL of each compound and control was added to separate wells containing cell lines and incubated at 37°C in humidified 5% CO2 atmosphere for 4 h. After 4 h, media containing the compounds was replaced with 200 μL of normal RPMI-1640 and cells were further incubated for 48 h under same conditions. After 48 h media was replaced by 200 μL of MTT (3-(4, 5-dimethylthiazol-2-yl)-2, 5-diphenyltetrazolium bromide, 0.5 mg/mL of RPMI-1640) and further incubated for 2 h. The formazan crystals were formed and suspended in 100 μL iso-propanol containing 0.06 M HCl and 0.5% SDS. Aliquots were drawn from each well and colour intensity was measured spectrophotometrically in an ELISA plate reader (Biotek, ELx800) at 540 nm. Untreated cells were taken as control with 100% viability and cells without addition of MTT were used as blank. The relative cell viability (%) compared to control cells was calculated by [abs] sample/ [abs] control × 100.

MCF-7 cell line = assay: MTT-colorimetric cytotoxicity assay; format: cell-based; details: 100, 25 and 6.25 μg mL^-1
Procedure: as §3

plasmepsin 2 = biological target: T1, plasmepsin 2 (Plasmodium falciparum, UniProt P46925); assay: Inhibition of plasmepsin 2, chromogenic substrate cleavage assay; format: biochemical; details: pH 4.5; fit to competitive inhibition scheme
T1 construct: preincubated at the assay pH for 3 minutes to allow conversion from the proenzyme to the mature enzyme form; made in house
T1 sequence (P46925 125-453): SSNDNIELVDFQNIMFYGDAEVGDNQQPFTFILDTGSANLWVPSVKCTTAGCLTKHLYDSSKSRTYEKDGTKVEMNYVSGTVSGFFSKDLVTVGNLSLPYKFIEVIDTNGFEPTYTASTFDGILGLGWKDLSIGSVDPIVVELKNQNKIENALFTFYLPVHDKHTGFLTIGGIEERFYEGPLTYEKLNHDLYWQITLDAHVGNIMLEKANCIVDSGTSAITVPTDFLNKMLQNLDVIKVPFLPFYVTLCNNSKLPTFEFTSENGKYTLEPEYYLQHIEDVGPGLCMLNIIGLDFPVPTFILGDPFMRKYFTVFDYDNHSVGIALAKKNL
Procedure: (§4) Synthetic compounds were dissolved in DMSO to make stock solutions at concentrations around 100 μM. Dilutions from these stocks were made to obtain solutions to use for studying inhibition of the plasmepsins 2 and 4 from P. falciparum. Assays of enzymatic activity were typically done using 50 micromolar substrate and 50 nanomolar enzyme at pH 4.5. The protein samples were preincubated at the assay pH for 3 minutes to allow conversion from the proenzyme to the mature enzyme form, then immediately mixed with inhibitor solutions and incubated for a further 5 minutes to permit the enzyme-inhibitor complex to form. Following this, the samples were mixed with samples of the substrate to yield a 50 μM substrate concentration in the final assay solution and immediately placed in a recording spectrophotometer to follow the reaction. The cleavage of the chromogenic substrate yields a shift in absorbance that can be quantified by the decrease in absorbance at 300 nm. Compounds were mixed with the enzymes at concentrations ranging from 10 to 50 μM range and the effect on enzyme activity studied in duplicate assays.
(§5) A second inhibitor concentration was chosen that would yield approximately 30–35% inhibition and a third inhibitor concentration was chosen to yield approximately 65–70% inhibition. The three resulting curves of initial velocity versus substrate concentration were fit simultaneously to the competitive inhibition scheme; this yields values of Vmax, Km, and Ki.
(§6) Plasmepsins, a family of aspartic proteases of malaria parasite, are known to participate in a wide variety of cellular processes essential for parasite survival. […] Similarly, plasmepsin 4 from P. falciparum can be prepared and activated. Catalytic activity of the plasmepsins can be studied by following the change in absorbance at 300 nm as cleavage occur between a Phe and a nitroPhe in the synthetic substrate, Lys-Pro-Ile-Glu-Phe-NO2Phe-Arg-Leu. The compounds listed in Tables 1, 2 and 3 were assayed for inhibition by preincubating with differnt concentrations of the compound with equal aliquots of either plasmepsin 2 or 4 followed by mixing with the assay substrate.

plasmepsin 4 = biological target: T2, plasmepsin 4 (Plasmodium falciparum, UniProt Q8IM16); assay: Inhibition of plasmepsin 4, chromogenic substrate cleavage assay; format: biochemical; details: pH 4.5; fit to competitive inhibition scheme
T2 construct: preincubated at the assay pH for 3 minutes to allow conversion from the proenzyme to the mature enzyme form; made in house
T2 sequence (Q8IM16 122-449): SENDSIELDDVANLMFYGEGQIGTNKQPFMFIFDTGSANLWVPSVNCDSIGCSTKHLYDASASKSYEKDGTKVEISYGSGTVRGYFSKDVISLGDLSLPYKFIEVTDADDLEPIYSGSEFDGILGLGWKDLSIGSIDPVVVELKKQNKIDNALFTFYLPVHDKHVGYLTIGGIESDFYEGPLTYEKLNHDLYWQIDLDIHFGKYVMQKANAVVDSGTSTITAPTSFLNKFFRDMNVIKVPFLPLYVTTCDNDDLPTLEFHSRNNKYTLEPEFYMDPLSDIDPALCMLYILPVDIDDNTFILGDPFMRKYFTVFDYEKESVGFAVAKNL
Procedure: as §4, §5, §6

[3] = Plasmodium falciparum, CQ sensitive strain 3D7, 48 h incubation
[4] = values in brackets, 48 h incubation, read-out: IC50 values ± SE, CQ resistant strain (7GB) (converted)

In the case of `C[C@@H]1CC[C@H]2[C@@H](C)C(=O)O[C@@H]3O[C@@]4(C)CC[C@@H]1[C@]32OO4` [ART, reference compound], the IC50 (P. falciparum 3D7; CQ sensitive strain 3D7, 48 h incubation) is reported as 0.021 µM.

For `CCN(CC)CCCC(C)Nc1ccnc2cc(Cl)ccc12` (centres unmarked) [CQ, Chloroquine, reference compound], the IC50 ([1]; 48 h, read-out: IC50 values ± SE, CQ resistant strain (7GB)) was 1.32 µM and the IC50 (P. falciparum 3D7; Plasmodium falciparum, 3D7, 48 h) was 0.059 µM.

In the case of `CN1CCN(C[C@H](O)[C@@H](Cc2ccccc2)NC(=O)OC(C)(C)C)CC1` [Compound 5a], the “hemolysis of human erythrocytes (in words)” value (“hemolysis” for short) (human erythrocytes) is reported as “least hemotoxic”, the IC50 (P. falciparum 3D7; [3]) is reported as 5.88 ± 0.23 µM and the IC50 at 4 h [2] is reported as over 8 µM.

For `CCN1CCN(C[C@H](O)[C@@H](Cc2ccccc2)NC(=O)OC(C)(C)C)CC1` [Compound 5b], the “hemolysis” value (human erythrocytes) was “highest hemotoxicity”, the IC50 (P. falciparum 3D7; [3]) was 5.4 ± 0.06 µM and the melting point was 89 to 91 °C.

`CC(C)(C)OC(=O)N[C@H](Cc1ccccc1)[C@@H](O)CN1CCN(Cc2ccc(F)cc2)CC1` [Compound 5c] showed an IC50 (P. falciparum 3D7; [3]) of 2.56 ± 0.06 µM, a melting point of 108 to 110 °C and an IC50 at 4 h [2] of over 8 µM.

`CC(C)(C)OC(=O)N[C@H](Cc1ccccc1)[C@@H](O)CN1CCN(Cc2ccc(Br)cc2)CC1` [Compound 5d] showed an IC50 (P. falciparum 3D7; [3]) of 4.9 ± 0.01 µM and a melting point of 111 to 114 °C.

In the case of `CC(C)(C)OC(=O)N[C@H](Cc1ccccc1)[C@@H](O)CN1CCN(C[C@H](O)[C@@H](Cc2ccccc2)NC(=O)OC(C)(C)C)CC1` [Compound 5f], the IC50 (P. falciparum 3D7; [3]) is reported as 3.11 ± 0.11 µM and the “cytotoxic effect on MCF7 cell line (in words)” value (“cytotoxic effect” below) (MCF-7 cell line) is reported as “maximal toxicity”.

Work on `CC(C)C[C@@H](C(=O)N[C@H](Cc1ccccc1)[C@@H](O)CN1CCN(C)CC1)N1C(=O)c2ccccc2C1=O` [Compound 6a] yielded an IC50 (P. falciparum 3D7; [3]) of 4.61 ± 0.06 µM and a melting point of 141 to 143 °C.

Work on `CN1CCN(C[C@H](O)[C@@H](Cc2ccccc2)NC(=O)[C@H](Cc2ccccc2)N2C(=O)c3ccccc3C2=O)CC1` [Compound 6b] yielded an IC50 (P. falciparum 3D7; [3]) of 3.41 ± 0.03 µM and a melting point of 101 to 103 °C.

In the case of `CC(C)[C@@H](C(=O)N[C@H](Cc1ccccc1)[C@@H](O)CN1CCN(C)CC1)N1C(=O)c2ccccc2C1=O` [Compound 6c], the IC50 (P. falciparum 3D7; [3]) is reported as 4.58 ± 0.04 µM and the melting point is reported as 91 to 93 °C.

With `CC[C@@H](C)[C@@H](C(=O)N[C@H](Cc1ccccc1)[C@@H](O)CN1CCN(C)CC1)N1C(=O)c2ccccc2C1=O` [Compound 6d] the “hemolysis” value (human erythrocytes) was “lower hemolysis”, the IC50 (P. falciparum 3D7; [3]) was 6.33 ± 0.13 µM and the melting point was 104 to 106 °C.

`CCN1CCN(C[C@H](O)[C@@H](Cc2ccccc2)NC(=O)[C@H](CC(C)C)N2C(=O)c3ccccc3C2=O)CC1` [Compound 6e] showed an IC50 (P. falciparum 3D7; [3]) of 2.13 ± 0.02 µM and a melting point of 117 to 119 °C.

In the case of `CCN1CCN(C[C@H](O)[C@@H](Cc2ccccc2)NC(=O)[C@H](Cc2ccccc2)N2C(=O)c3ccccc3C2=O)CC1` [Compound 6f], the IC50 (P. falciparum 3D7; [3]) is reported as 2.96 ± 0.43 µM and the melting point is reported as 108 to 111 °C.

Molecule `CCN1CCN(C[C@H](O)[C@@H](Cc2ccccc2)NC(=O)[C@H](C(C)C)N2C(=O)c3ccccc3C2=O)CC1` [Compound 6g] has an IC50 (P. falciparum 3D7; [3]) of 3.8 ± 0.03 µM and a melting point of 108 to 111 °C.

For `CC(C)C[C@@H](C(=O)N[C@H](Cc1ccccc1)[C@@H](O)CN1CCN(Cc2ccc(F)cc2)CC1)N1C(=O)c2ccccc2C1=O` [Compound 6i], the IC50 (P. falciparum 3D7; [3]) was 5.27 ± 0.06 µM and the melting point was 134 to 136 °C.

With `O=C(N[C@H](Cc1ccccc1)[C@@H](O)CN1CCN(Cc2ccc(F)cc2)CC1)[C@H](Cc1ccccc1)N1C(=O)c2ccccc2C1=O` [Compound 6j] the IC50 [1, 4] was 3.6 µM, the “hemolysis” value (human erythrocytes) was “lower hemolysis” and the IC50 (P. falciparum 3D7; [3]) was 1.33 ± 0.04 µM. The melting point was 121 to 123 °C and the “cytotoxic effect” value (MCF-7 cell line) was “low cytotoxic effect”.

In the case of `CC(C)[C@@H](C(=O)N[C@H](Cc1ccccc1)[C@@H](O)CN1CCN(Cc2ccc(F)cc2)CC1)N1C(=O)c2ccccc2C1=O` [Compound 6k], the IC50 (P. falciparum 3D7; [3]) is reported as 4.59 ± 0.07 µM, the melting point is reported as 137 to 139 °C and the IC50 at 4 h [2] is reported as over 8 µM.

With `CC(C)C[C@@H](C(=O)N[C@H](Cc1ccccc1)[C@@H](O)CN1CCN(Cc2ccc(Br)cc2)CC1)N1C(=O)c2ccccc2C1=O` [Compound 6m] the IC50 (P. falciparum 3D7; [3]) was 6.96 ± 0.1 µM, the melting point was 143 to 145 °C and the IC50 at 4 h [2] was over 8 µM.

In the case of `O=C(N[C@H](Cc1ccccc1)[C@@H](O)CN1CCN(Cc2ccc(Br)cc2)CC1)[C@H](Cc1ccccc1)N1C(=O)c2ccccc2C1=O` [Compound 6n], the IC50 (P. falciparum 3D7; [3]) is reported as 3.14 ± 0.02 µM and the melting point is reported as 131 to 133 °C.

With `CC(C)[C@@H](C(=O)N[C@H](Cc1ccccc1)[C@@H](O)CN1CCN(Cc2ccc(Br)cc2)CC1)N1C(=O)c2ccccc2C1=O` [Compound 6o] the IC50 [1, 4] was 3.01 µM, the IC50 (P. falciparum 3D7; [3]) was 1.25 ± 0.08 µM and the “cytotoxic effect” value (MCF-7 cell line) was “low cytotoxic effect”.

Work on `O=C(N[C@H](Cc1ccccc1)[C@@H](O)CN1CCC(N2CCCCC2)CC1)[C@H](Cc1ccccc1)N1C(=O)c2ccccc2C1=O` [Compound 6q] yielded an IC50 (P. falciparum 3D7; [3]) of 8.54 ± 0.04 µM, a melting point of 134 to 136 °C and an IC50 at 4 h [2] of over 8 µM.

With `CC(C)C[C@@H](C(=O)N[C@H](Cc1ccccc1)[C@@H](O)CN1CCN(C[C@H](O)[C@@H](Cc2ccccc2)NC(=O)[C@H](CC(C)C)N2C(=O)c3ccccc3C2=O)CC1)N1C(=O)c2ccccc2C1=O` [Compound 6r] the “hemolysis” value (human erythrocytes) was “least hemotoxic”, the Ki (plasmepsin 2) was 1.1 ± 0.1 µM and the IC50 (P. falciparum 3D7; [3]) was 5.12 ± 0.43 µM. The melting point was 141 to 143 °C and the Ki (plasmepsin 4) was over 50 µM.

In the case of `CC(C)[C@@H](C(=O)N[C@H](Cc1ccccc1)[C@@H](O)CN1CCN(C[C@H](O)[C@@H](Cc2ccccc2)NC(=O)[C@H](C(C)C)N2C(=O)c3ccccc3C2=O)CC1)N1C(=O)c2ccccc2C1=O` [Compound 6t], the Ki (plasmepsin 2) is reported as over 20 µM, the IC50 (P. falciparum 3D7; [3]) is reported as 7.28 ± 0.43 µM and the melting point is reported as 123 to 125 °C. For the same molecule, the Ki (plasmepsin 4) was 3.3 ± 0.3 µM.

With `CCC(C)[C@@H](C(=O)N[C@H](Cc1ccccc1)[C@@H](O)CN1CCN(C[C@H](O)[C@@H](Cc2ccccc2)NC(=O)[C@H](C(C)CC)N2C(=O)c3ccccc3C2=O)CC1)N1C(=O)c2ccccc2C1=O` (some centres unmarked) [Compound 6u] the Ki (plasmepsin 2) was 0.99 ± 0.1 µM, the IC50 (P. falciparum 3D7; [3]) was 3.24 ± 0.06 µM and the melting point was 131 to 134 °C. For the same molecule, the Ki (plasmepsin 4) was over 50 µM.
